Where two headings read alike, the source gives them in different places.

The text below walks through data of US20180006232A1, “HETEROCYCLIC COMPOUND, LIGHT-EMITTING ELEMENT, LIGHT-EMITTING DEVICE, ELECTRONIC APPLIANCE, AND LIGHTING DEVICE” (Semiconductor Energy Laboratory Co., Ltd., priority 2014, published 2018).

A short description of this series: Examination of solubility in organic solvents. In kind it is physicochemical. To be noted: for solubility: organic solvent or mixture, thermodynamic from solid. The text has this: The heterocyclic compound which is one embodiment of the present invention and used in this example was 2mFBPDBq (sample 1). Note that 2mFBPDBq was synthesized by the synthesis method described in Example 1. In addition, the compound used for comparison was 2mDBTBPDBq-II (comparison sample 2). The purity of each compound was 99.9%. The structural formulae of the compounds are shown below.
The solvents used in this example were the four kinds of solvents: toluene, chloroform, ethyl acetate, and acetone.
A method of examining the solubility of the compound of each sample is described. First, 10 mg of the compound was put into a small bottle and to this was added 1 mL of a solvent. Then, whether the compound was dissolved at room temperature or not was checked. When the compound was not dissolved at room temperature, ultrasonic wave irradiation and then heating using a dryer were performed, so that whether the compound was dissolved was checked.
When the compound was not dissolved after heating, the volume of the solvent was increased to 10 mL, so that whether the compound was dissolved at room temperature was checked. When the compound was not dissolved at room temperature, ultrasonic wave irradiation and then heating using a dryer were performed, so that whether the compound was dissolved was checked.

For `c1cc(-c2cccc(-c3cccc4c3sc3ccccc34)c2)cc(-c2cnc3c4ccccc4c4ccccc4c3n2)c1` [2mDBTBPDBq-II, 2-[3′-(dibenzothiophen-4-yl)biphenyl-3-yl]dibenzo[f,h]quinoxaline, reference compound], the solubility was less than 1 mg/mL.

Consider `CC1(C)c2ccccc2-c2ccc(-c3cccc(-c4cccc(-c5cnc6c7ccccc7c7ccccc7c6n5)c4)c3)cc21` [2mFBPDBq, 2-{3-[3-(9,9-dimethylfluoren-2-yl)phenyl]phenyl}dibenzo[f,h]quinoxaline], for which the “Solubility in Acetone” value (acetone, 10 mg compound in 1 mL, then 10 mL, room temperature, then ultrasonic wave irradiation and heating) is listed as “□ (dissolved at 10 mg/10 mL when heated)”. Moreover, the “Solubility in Chloroform” value (chloroform, 10 mg compound in 1 mL, then 10 mL, room temperature, then ultrasonic wave irradiation and heating) is “◯ (dissolved at 10 mg/mL when heated)”. Moreover, the “Solubility in Ethyl acetate” value (ethyl acetate, 10 mg compound in 1 mL, then 10 mL, room temperature, then ultrasonic wave irradiation and heating) is listed as “□ (dissolved at 10 mg/10 mL when heated)”. Besides, for the setting “toluene, 10 mg compound in 1 mL, then 10 mL, room temperature, then ultrasonic wave irradiation and heating, read-out: Solubility in Toluene”, the solubility was greater than 10 mg/mL. In addition, where the note is “organic solvents (toluene, chloroform, ethyl acetate, acetone), summary in words”, the “Solubility compared with comparison compound 2mDBTBPDBq-II” value was “higher solubility”.
